For data set [1], the system named is rat platelet-rich plasma (ADP-induced platelet aggregation). Nature of the data set: Anti-platelet aggregation activity in vitro (Born's method), rat platelet-rich plasma, ADP-induced. It counts as cell-based. As to the method: Preparations (A), (B), (C), (D), (E) and (F) were administered "in vivo" orally and/or parenterally in 0.5% carboxymethylcellulose suspensions in physiological saline at neutral pH. When tested "in vitro", they were finely dispersed in neutral pH physiological saline.
This was studied "in vitro" following Born's method (Born G. W. R., Nature, 194, 937 (1962)) and inducing platelet aggregation with ADP.
Platelet-rich plasma was obtained by centrifugation for 10 minutes at 2,000 rpm of 9 parts rat blood to 1 part 3.13% sodium citrate solution. In performing the aggregation test, 0.2 ml of platelet rich plasm was mixed with a 0.9% NaCl solution to which the test substance was added to a final volume of 0.6 ml; the resulting mixture was incubated at 27° C. for 3 minutes. After inducement with ADP, aggregation was measured continuously with an Elvi 840 Aggregometer (Elvi Logos-Milan) to follow its course. The anti-aggregant effects were determined from the difference in the light transmission of the sample with respect to an ADP control.
Table I reports the platelet aggregation inhibition using different doses of the test compounds at a constant ADP concentration.

Another data set deals with gastric mucosa. Briefly: Gastric tolerance (ulcerogenic activity). The conditions noted are these: 4 days; for Mean Severity: scale 0-5. It counts as in vivo, male Wistar rats. How it is done:
This was studied by conducting tests of ulcerogenic activity in male Wistar rats, weighing 180 g on the average, in groups of 10 animals each. Three doses of each substance were given, and one group of animals was treated with vehicle only in a volume of 10 ml/kg bodyweight. Each dose was given orally for four consecutive days; on the fifth day, the rats were killed and autopsied. The ulcerogenic effect was assessed according to the following scale:
(1) each hemorrhage point ≥1 mm was evaluated as 1 lesion
(2) hemorrhage points smaller than 1 mm were counted as follows:
(b) from 1 to 19:2 lesions
(c) from 1 to 29:3 lesions
(2) gastric mucosa irritation: 1
(3) hemorrahge points <1 mm: 2
(4) hemorrhage points between 1 and 3 mm: 3
(5) hemorrhage points >3 mm: 4
This scale was used to calculate the following gastric damage index: [formula]

Another data set has as its system carragenin-induced edema. Briefly: Carragenin-induced edema test (Winter). It counts as in vivo, rat. How it is done:
This effect was measured with an experimental model reproducing acute inflammation in rats: the carragenin-induced edema test according to C.

A word on the % Inhibition: it is the percentage by which the read-out fell short of the control. Take `CC(=O)Oc1ccccc1C(=O)O` [aspirin, reference compound]: the “% Inhibition” value in data set [1] (ADP 2 μmol/l, dose 1 V/ml (Table II)) is recorded as 29%; in data set [1] (ADP 5 μmol/l, dose 1 V/ml (Table II)) it was 19%; in data set [1] (ADP 7.08 μmol/l, dose 1 /ml (Table I)), 15%; in data set [1] (ADP 7.08 μmol/l, dose 5 /ml (Table I)) it was 60%; in data set [1] (ADP 7.08 μmol/l, dose 10 /ml (Table I)), 100%.

`Cc1ccc(C(=O)c2ccc(CC(=O)O)n2C)cc1` [Na Tolmetin 2H2 O, 1-methyl-5-p-methylbenzoylpyrrol-2-acetic acid, reference compound]: the entries for the “% incidence 10” value in the data set on gastric mucosa (50 mg/kg oral), with gastric mucosa (100 mg/kg oral) and in the data set with gastric mucosa (200 mg/kg oral) were 7 %/10, 10 %/10 and 10 %/10, respectively. The “Mean No. lesions” value was 2 with gastric mucosa (50 mg/kg oral), 2,5 in the data set on gastric mucosa (100 mg/kg oral) and 3 with gastric mucosa (200 mg/kg oral). Also, the “Mean Severity” value in the data set with gastric mucosa (50 mg/kg oral) is reported as 2; with gastric mucosa (100 mg/kg oral), 3,5; in the data set with gastric mucosa (200 mg/kg oral), 4. The “% Edema Inhibition” value in the data set with carragenin-induced edema (I.P., 10 mg/kg, 3 h) is listed as 32,0%; with carragenin-induced edema (I.P., 10 mg/kg, 6 h), 23,0%; in the data set with carragenin-induced edema (I.P., 10 mg/kg, 24 h), 0,0%; with carragenin-induced edema (I.P., 50 mg/kg, 3 h) it was 48,6%; in the data set on carragenin-induced edema (I.P., 50 mg/kg, 6 h), 53,2%; with carragenin-induced edema (I.P., 50 mg/kg, 24 h), 0,0%. Besides, the “% Edema Inhibition” value in the data set with carragenin-induced edema (I.P., 100 mg/kg, 3 h) was 67,3%; in the data set on carragenin-induced edema (I.P., 100 mg/kg, 6 h) it was 55,1%; with carragenin-induced edema (I.P., 100 mg/kg, 24 h) it was 0,0%; with carragenin-induced edema (OS, 10 mg/kg, 3 h), 30,5%; in the data set on carragenin-induced edema (OS, 10 mg/kg, 6 h) it was 24,0%; with carragenin-induced edema (OS, 10 mg/kg, 24 h), 0,0%. For the same compound, the “% Edema Inhibition” value with carragenin-induced edema (OS, 50 mg/kg, 3 h) is on record as 49,0%; in the data set on carragenin-induced edema (OS, 50 mg/kg, 6 h) it was 52,0%; in the data set with carragenin-induced edema (OS, 50 mg/kg, 24 h), 0,0%; in the data set on carragenin-induced edema (OS, 100 mg/kg, 3 h), 59,0%; in the data set with carragenin-induced edema (OS, 100 mg/kg, 6 h), 54,2%; in the data set on carragenin-induced edema (OS, 100 mg/kg, 24 h), 0,0%.
